Assays:
[1] = cytochemical bioassay in unfixed tissue sections of dioestrous rat ovary (formazan dye absorbance); type: biochemical; settings: versus trilostane, weight for weight basis, standard curves 0.15 to 2.5 µM (nM), 95% confidence 1.4-2.1
Description: In a first study, a cytochemical bioassay was employed to determine the relative potency of the 17- keto trilostane metabolite versus trilostane, in three experiments. From the results obtained, standard curves covering the range from 0.15 to 2.5nM were prepared for the metabolite and the parent compound. Potency estimates were calculated by computer analysis of the relative slopes and errors around each dose point.
The cytochemical bioassay is based upon the reaction, within serial unfixed tissue sections of the dioestrous rat ovary, between the enzyme, […] -A^5-3-oxosteroid isomerase (38 HSD) contained therein, and added substrate, cofactors and a colourless tetrazolium salt. The reaction leads to the deposition of an intensely coloured blue insoluble formazan dye in the sections, and the amount of dye produced within a section over a given period (absorbance) is measured by means of a scanning integrating densitometer. If an inhibitor of 3a HSD, such as trilostane or 17-keto trilostane metabolite is added to the system, the amount of blue dye formed will be reduced.
The bioassay curves obtained are as shown in Figure 1 of the accompanying drawings, results being expressed as the mean +SD(n=4).

plasma cortisol = plasma cortisol by radioimmunoassay after oral trilostane in volunteers; type: in vivo, healthy male volunteers; settings: trilostane 2 x 60 mg capsules orally, fasted, plasma up to 8 hours; during sustained plasma peaks of trilostane and 17-keto metabolite

| Structure (SMILES) | relative in vitro potency compared with the parent compound [1] | relative in vitro potency compared with the parent compound ([1]; listed as metabolite) [times] | cortisol secretion (plasma cortisol) |
| --- | --- | --- | --- |
| C[C@]12CC[C@H]3[C@@H](CC[C@@]45O[C@@H]4C(=O)[C@H](C#N)C[C@]35C)[C@@H]1CCC2=O [17-keto metabolite, 2α-cyano-4α,5α-epoxyandrostan-3,17-dione] | about 1.7 times | 1.71 | – |
| C[C@]12CC[C@H]3[C@@H](CC[C@@]45O[C@@H]4C(O)=C(C#N)C[C@]35C)[C@@H]1CC[C@@H]2O [trilostane, 2a-cyano-4a,5a-epoxyandrostan-17a-ol-3-one] | – | – | suppressed |
